The source of these data is article PMC8304761, “Development of an Androgen Receptor Inhibitor Targeting the N-Terminal Domain of Androgen Receptor for Treatment of Castration Resistant Prostate Cancer” (Cancers, 2021).

The subject of test [1] is 22Rv1 cells. Kind of test: Proliferation assay (PrestoBlue), 22Rv1. Format: cell-based. To be noted: Homo sapiens, 72 h, Figure 2D, read-out: IC50, viability of 22Rv1 cells. How it is done: (§1) Proliferation assay: LNCaP, 22Rv1 and PC3 cells were plated at 3000 cells per well in RPMI1640 containing 5% CSS in a 96-well plate, treated with 0.1 nm R1881 (a synthetic androgen) and test compounds (0–25 μM) for 72 h. Cell proliferation was determined using the PrestoBlue^TM cell proliferation assay following incubation with the compound […] over 72 h. In brief, 30 μL of the PrestoBlue^TM reagent was added to cells in each well of the 96-well plate containing 200 μL of media and incubated for 60 min at 37 °C in 5% CO2. The production of […]. Fluorescence measurement was read on a TECAN F200.
(§2) We then evaluated the effect of VPC-220010 on the proliferation of androgen-dependent LNCaP and ARV7-dependent 22Rv1 cells.

For test [2], the system named is prostate specific antigen (PSA). Kind of test: Secreted PSA levels in LNCaP cells. The conditions noted are these: Homo sapiens; LNCaP cells; read-out: IC50, secreted PSA levels. Format: cell-based. The source says:
Next, we tested the activity of VPC-220010 against full length AR using an AR-eGFP transcription assay in LNCaP cells. […] To further validate VPC-220010 as an AR inhibitor, we evaluated its ability to reduce the production of endogenous prostate specific antigen (PSA) in PCa cell lines. PSA is an AR-regulated serine protease and is widely used as a biomarker for PCa.

In test [3] the target is T1, AR-NTD (Gal4DBD-AR1-558) (Homo sapiens, UniProt P10275).
T1 construct: expressed in transfected cells; host or cells: LNCaP
T1 sequence (P10275 1-558): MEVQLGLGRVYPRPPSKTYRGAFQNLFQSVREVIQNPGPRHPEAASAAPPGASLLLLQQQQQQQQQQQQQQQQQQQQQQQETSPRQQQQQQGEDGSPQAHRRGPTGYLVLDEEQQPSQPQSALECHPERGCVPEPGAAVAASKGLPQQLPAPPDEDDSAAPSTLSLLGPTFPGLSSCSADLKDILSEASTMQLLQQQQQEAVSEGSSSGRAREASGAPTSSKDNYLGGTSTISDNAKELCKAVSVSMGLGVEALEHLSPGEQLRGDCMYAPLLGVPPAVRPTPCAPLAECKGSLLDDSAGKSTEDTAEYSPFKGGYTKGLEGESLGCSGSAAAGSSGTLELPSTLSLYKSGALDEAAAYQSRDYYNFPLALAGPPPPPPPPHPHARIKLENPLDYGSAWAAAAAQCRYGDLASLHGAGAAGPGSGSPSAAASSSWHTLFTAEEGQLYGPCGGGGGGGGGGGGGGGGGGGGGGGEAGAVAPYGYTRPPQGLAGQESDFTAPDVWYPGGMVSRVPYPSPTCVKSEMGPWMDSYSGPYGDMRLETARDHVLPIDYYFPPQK
Kind of test: NTD-transactivation assay (mammalian two hybrid, forskolin) in LNCaP cells. Format: cell-based. The conditions noted are these: varying concentrations; Figure 3. How it is done: Following 48 h incubation, cells were then treated with compounds at various concentrations and 0.1 nm R1881 (in 100% ethanol) for 24 h for AR assays. GR, ER, and PR activation was stimulated with 1 nm dexamethasone, estradiol, or progesterone, respectively. […] Cell lysis was carried out with 60 μL of 1× passive lysis buffer/well (Promega Madison, WI, USA). 20 μL of cell lysate from each well were mixed with 50 μL of luciferase assay reagent (Promega Madison, WI, USA), and luminescence was recorded on a TECAN M200pro plate reader.
To confirm the proposed mechanism of VPC-220010 we tested the effect of this compound on NTD-mediated transactivation. […] When incubated with forskolin, this system induces transcription activity through phosphorylation of the AR-NTD [10].

Test [4] concerns LNCaP cells. Kind of test: Proliferation assay (PrestoBlue), LNCaP. Format: cell-based. To be noted: Homo sapiens, 72 h, R1881, Figure 2C, read-out: IC50, viability of LNCaP cells. How it is done: as §1, §2
Test [5] has as its system ARV7-regulated genes UBE2C, AKT1 and CDC20. Kind of test: qPCR of ARV7-regulated genes in 22Rv1 cells. Format: cell-based, human. To be noted: Figure 5B. (In qPCR the cycle at which signal appears reflects the starting amount.)
Procedure: Total RNA was extracted from cells with Trizol and the Qiagen RNeasy RNA Extraction Kit (Qiagen Germantown, MD, USA). Approximately 8 × 10^6 cells were collected per sample, with three biological replicates for each treatment. The concentrations and the qualities of the RNA samples were checked by Nanodrop. cDNA was prepared busing MMLV-Reverse Transcriptase (Thermo Fisher Scientific, Waltham, MA, USA). qRT-PCR was performed with LightCycler® 480 SYBR Green I Master (Roche, Basel, Switzerland).
The subject of test [6] is PSA. The arrangement: method as in doi:10.1200/JCO.2019.37.7_suppl.257. The conditions noted are these: patients, metastatic CRPC, low levels of circulating EPI-506; cited from earlier work.

For the compound `CC(C)(c1ccc(OCC(O)CO)cc1)c1ccc(OCC(O)CCl)cc1` (stereo not drawn) [EPI-001, reference compound], the figures for the IC50 in test [1], in test [2] and in test [4] were > 50 µM, > 25 µM and > 25 µM, respectively. Also, the “AR-NTD activity induced by forskolin” value in test [3] is given as “inhibited”. Moreover, the “expression of ARV7-regulated genes UBE2C, AKT1 and CDC20 (qPCR)” value in test [5] was “inhibited”.

With `CC(=O)OC[C@H](COc1ccc(C(C)(C)c2ccc(OC[C@@H](CCl)OC(C)=O)cc2)cc1)OC(C)=O` [EPI-506], in test [6], the “decrease in PSA” value is 4–29%.
